Assay results: publication PMC1972543, “Elevated carbohydrate phosphotransferase activity in human hepatoma and phosphorylation of cathepsin D” (British Journal of Cancer, 1991)

Tests used:
[1] = target: T1, GlcNAc-phosphotransferase (UDP-GlcNAc: lysosomal enzyme GlcNAc alpha 1-phosphotransferase) (Homo sapiens, UniProt Q3T906); assay: radiometric transferase assay, QAE-Sephadex; type: biochemical; settings: normal liver homogenate, range of three preparations, Mn2+, Mg2+, ATP, pH 7.4, 37 °C
T1 construct: gene GNPTAB; native enzyme in 600 g supernatant of human normal liver homogenate (autopsy tissue), not purified; alpha/beta precursor is cleaved into alpha and beta chains (alpha2beta2gamma2); with N-acetylglucosamine-1-phosphotransferase subunit gamma

[2] = target: T2, phosphodiester glycosidase (phosphodiester alpha-N-acetylglucosaminidase) (Homo sapiens, UniProt Q9UK23); assay: radiometric release of [3H]GlcNAc, QAE-Sephadex; type: biochemical; settings: liver homogenate; Triton X-100, N-acetylmannosamine, EDTA, pH 7.4, 37 °C; labelled compound
T2 construct: gene NAGPA; native enzyme in 600 g supernatant of human normal liver and hepatoma homogenates, not purified
T2 sequence (Q9UK23 50-515): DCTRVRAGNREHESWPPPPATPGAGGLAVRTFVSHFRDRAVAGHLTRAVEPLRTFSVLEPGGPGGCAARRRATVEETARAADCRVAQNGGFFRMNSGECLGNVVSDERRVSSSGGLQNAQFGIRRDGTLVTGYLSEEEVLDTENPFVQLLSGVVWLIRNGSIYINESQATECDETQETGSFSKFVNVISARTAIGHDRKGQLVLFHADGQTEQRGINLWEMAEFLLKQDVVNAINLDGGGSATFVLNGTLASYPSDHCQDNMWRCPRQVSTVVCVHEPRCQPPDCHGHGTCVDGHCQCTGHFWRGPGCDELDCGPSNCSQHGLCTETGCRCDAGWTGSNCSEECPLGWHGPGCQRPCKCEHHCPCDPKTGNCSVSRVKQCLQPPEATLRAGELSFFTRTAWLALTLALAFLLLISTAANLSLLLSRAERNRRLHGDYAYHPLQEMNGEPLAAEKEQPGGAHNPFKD

T1 sequence (Q3T906 1-928): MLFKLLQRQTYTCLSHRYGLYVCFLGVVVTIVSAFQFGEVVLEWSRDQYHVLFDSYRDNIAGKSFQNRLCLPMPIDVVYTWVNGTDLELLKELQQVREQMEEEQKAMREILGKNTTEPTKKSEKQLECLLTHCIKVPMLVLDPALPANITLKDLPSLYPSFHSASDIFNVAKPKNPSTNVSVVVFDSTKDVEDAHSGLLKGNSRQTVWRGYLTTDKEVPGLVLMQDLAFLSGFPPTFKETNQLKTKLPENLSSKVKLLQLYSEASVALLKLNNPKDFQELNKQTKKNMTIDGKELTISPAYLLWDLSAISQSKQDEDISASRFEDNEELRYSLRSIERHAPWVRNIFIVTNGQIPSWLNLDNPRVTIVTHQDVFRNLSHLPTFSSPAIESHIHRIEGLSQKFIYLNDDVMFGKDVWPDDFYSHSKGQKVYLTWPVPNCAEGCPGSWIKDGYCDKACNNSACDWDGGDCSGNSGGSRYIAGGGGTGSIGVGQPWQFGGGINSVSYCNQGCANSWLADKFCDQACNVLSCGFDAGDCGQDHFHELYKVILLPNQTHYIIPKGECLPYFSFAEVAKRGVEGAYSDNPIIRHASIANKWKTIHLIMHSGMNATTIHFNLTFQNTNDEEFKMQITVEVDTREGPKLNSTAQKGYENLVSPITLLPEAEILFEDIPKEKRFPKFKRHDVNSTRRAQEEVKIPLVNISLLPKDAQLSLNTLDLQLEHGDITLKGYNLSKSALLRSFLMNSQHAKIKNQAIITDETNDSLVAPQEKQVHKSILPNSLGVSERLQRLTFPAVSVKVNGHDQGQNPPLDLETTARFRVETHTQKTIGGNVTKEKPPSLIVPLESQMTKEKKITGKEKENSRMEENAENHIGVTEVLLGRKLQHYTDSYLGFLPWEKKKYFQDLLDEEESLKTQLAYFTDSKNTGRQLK
T1 sequence (Q3T906 929-1256): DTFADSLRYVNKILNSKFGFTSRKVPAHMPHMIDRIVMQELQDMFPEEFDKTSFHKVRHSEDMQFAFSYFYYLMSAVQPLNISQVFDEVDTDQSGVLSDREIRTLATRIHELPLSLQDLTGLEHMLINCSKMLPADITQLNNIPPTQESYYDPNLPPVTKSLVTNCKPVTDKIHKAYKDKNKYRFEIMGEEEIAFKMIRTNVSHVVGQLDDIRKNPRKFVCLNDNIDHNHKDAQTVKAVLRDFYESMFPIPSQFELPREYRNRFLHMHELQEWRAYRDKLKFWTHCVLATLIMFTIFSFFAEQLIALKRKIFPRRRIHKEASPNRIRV
T1 sequence (Q9UJJ9 25-305 partner): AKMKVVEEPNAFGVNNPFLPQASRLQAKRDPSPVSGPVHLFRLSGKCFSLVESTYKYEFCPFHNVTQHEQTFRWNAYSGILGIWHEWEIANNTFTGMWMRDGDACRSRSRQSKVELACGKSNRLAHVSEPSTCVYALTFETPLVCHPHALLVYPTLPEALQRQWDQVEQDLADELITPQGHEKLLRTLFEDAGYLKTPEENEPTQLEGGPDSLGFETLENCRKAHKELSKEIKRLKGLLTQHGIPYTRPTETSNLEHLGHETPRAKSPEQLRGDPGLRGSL

**Q.** With `CO[C@H]1O[C@H](CO)[C@@H](O)[C@H](O)[C@@H]1O` [alpha-methylmannoside] as the compound, how does the Km ([1]; co-substrate [beta-32P]UDP-GlcNAc) read?
**A.** The Km was 50 to 100 mM.

**Q.** How did the “radiometric release of [3H]GlcNAc, QAE-Sephadex” value [2] turn out when `CO[C@H]1O[C@H](COP(=O)(O)O[C@H]2O[C@H](CO)[C@@H](O)[C@H](O)[C@H]2NC(C)=O)[C@@H](O)[C@H](O)[C@@H]1O` [[6-3H]GlcNAc-P-6-(alpha-methyl)mannoside] was run?
**A.** The value was “amount of the labelled substrate used for the glycosidase assay was not sufficient to measure Km”.

**Q.** For `CC(=O)N[C@H]1[C@@H](OP(=O)(O)OP(=O)(O)OC[C@H]2O[C@@H](n3ccc(=O)[nH]c3=O)[C@H](O)[C@@H]2O)O[C@H](CO)[C@@H](O)[C@@H]1O` [UDP-GlcNAc], which Km ([1]; acceptor alpha-methylmannoside, labelled compound) is on record?
**A.** Its Km is 0.027 to 0.037 mM.
